Source: patent US20190358345A1, “A[…]-IN[…] NANOPARTICLES AND PREPARATION METHODS THEREFOR” (CHINA PHARMACEUTICAL UNIVERSITY, priority 2017, published 2019)

Test: Dynamic light scattering of nanoparticles
Format: physicochemical
Conditions: self-assembled in aqueous solution
Description: The foregoing amphiphilic nonsteroid anti-inflammatory platinum is dissolved in DMF, dropped into an aqueous solution at room temperature, and the DMF is removed by dialysis to obtain an amphiphilic nonsteroid anti-inflammatory platinum nanoparticle solution. The dynamic light scattering results of the antitumor cisplatin-tonifamic acid nanoparticles prepared in this embodiment are shown in FIG. 3, and the means particle size of the nanoparticles is 157 nm.
CDDP (150 mg), AgNO3 (113 mg), tolfenamic acid (131 mg) and Na2CO3 (35.3 mg) are added to a round-bottom flask, then 10 ml of water is added and stirred at room temperature for 24 h in a dark place. The AgCl precipitate is centrifugally discarded, and the filtrate is dried in vacuum. The crude product is purified by silica gel column chromatography using an eluent of methanol:chloroform=1:9 to obtain the cisplatin-tolfenamic acid-based complex in a yield of 53%. The chemical structure of the complex synthesized in this embodiment is as shown in Formula 1. […]

Question: For Cc1c(Cl)cccc1[N]1c2ccccc2C(=O)[O][Pt]1([NH2])[NH2] [Embodiment 1, cisplatin-tolfenamic acid-based complex], which “means particle size of the nanoparticles” value is on record?
Answer: Its value is 157 nm.
